Results: the NIST ThermoML archive (doi:10.1016/j.jct.2007.03.009)
Where “and” joins values, the source holds several entries; their conditions need not be identical. Identical values can stand only once. Numbers after ± are expanded uncertainties.

Conditions: for mass density: 298 K, 101.33 kPa, Liquid, masses and of the volumes of pellets.; for Normal melting temperature / vapor or sublimation pressure: Crystal; for Normal melting temperature: DTA; for vapor or sublimation pressure: Knudsen effusion

mass density	Normal melting temperature	Compound	vapor or sublimation pressure (323.27 K)	vapor or sublimation pressure (325.24 K)	vapor or sublimation pressure (327.12 K)	vapor or sublimation pressure (329.26 K)	vapor or sublimation pressure (331.23 K)	vapor or sublimation pressure (333.11 K)	vapor or sublimation pressure (335.12 K)	vapor or sublimation pressure (337.26 K)	vapor or sublimation pressure (339.12 K)	vapor or sublimation pressure (341.22 K)	vapor or sublimation pressure (343.25 K)
1323 ± 26 kg/m3	81.5 ± 0.5 °C	O=C1c2ccccc2C(=O)N1CCBr [N-(2-bromoethyl)phthalimide]											
1218 ± 24 kg/m3	82.8 ± 0.5 °C	O=C1c2ccccc2C(=O)N1CCCl [N-(2-chloroethyl)phthalimide]											
1051 ± 21 kg/m3	72.8 ± 0.5 °C	O=C1c2ccccc2C(=O)N1CCCBr [N-(3-bromopropyl)phthalimide]											
1081 ± 22 kg/m3	133.5 ± 0.5 °C	O=C1c2ccccc2C(=O)N1CCl [N-(chloromethyl)phthalimide]	0.000111 ± 2e-05 kPa and 0.000106 ± 2e-05 kPa	0.000138 ± 2.1e-05 kPa and 0.000137 ± 2.1e-05 kPa and 0.000132 ± 2.1e-05 kPa	0.000171 ± 2.1e-05 kPa and 0.000168 ± 2.1e-05 kPa and 0.000169 ± 2.1e-05 kPa	0.000218 ± 2.1e-05 kPa and 0.000207 ± 2.1e-05 kPa and 0.00022 ± 2.1e-05 kPa	0.000282 ± 2.2e-05 kPa and 0.00027 ± 2.2e-05 kPa and 0.000262 ± 2.2e-05 kPa	0.00033 ± 2.3e-05 kPa and 0.000328 ± 2.3e-05 kPa and 0.000329 ± 2.3e-05 kPa	0.00042 ± 2.5e-05 kPa and 0.000413 ± 2.5e-05 kPa and 0.000402 ± 2.5e-05 kPa	0.000534 ± 2.8e-05 kPa and 0.000519 ± 2.7e-05 kPa and 0.000507 ± 2.7e-05 kPa	0.000648 ± 3e-05 kPa and 0.000644 ± 3e-05 kPa and 0.000618 ± 3e-05 kPa	0.000835 ± 3.6e-05 kPa and 0.000801 ± 3.5e-05 kPa and 0.00077 ± 3.4e-05 kPa	0.001007 ± 4.1e-05 kPa and 0.000989 ± 4e-05 kPa and 0.000946 ± 3.9e-05 kPa
